Results published in patent US12195479B2, “Five- and six-membered compound, and preparation method therefor and pharmaceutical composition and use thereof” (HANGZHOU POLYMED BIOPHARMACEUTICALS, INC., priority 2021, dated 2025).

Key:
[1] = target: T1, IRAK4 kinase (Homo sapiens, UniProt Q9NWZ3); assay: Kinase inhibition, fluorescence microfluidic mobility shift assay (IRAK4); format: biochemical; conditions: substrate peptide FAM-P8 3 μM, ATP 10 μM; one hour at 28° C.; assayed in duplicate
T1 sequence (Q9NWZ3 1-460): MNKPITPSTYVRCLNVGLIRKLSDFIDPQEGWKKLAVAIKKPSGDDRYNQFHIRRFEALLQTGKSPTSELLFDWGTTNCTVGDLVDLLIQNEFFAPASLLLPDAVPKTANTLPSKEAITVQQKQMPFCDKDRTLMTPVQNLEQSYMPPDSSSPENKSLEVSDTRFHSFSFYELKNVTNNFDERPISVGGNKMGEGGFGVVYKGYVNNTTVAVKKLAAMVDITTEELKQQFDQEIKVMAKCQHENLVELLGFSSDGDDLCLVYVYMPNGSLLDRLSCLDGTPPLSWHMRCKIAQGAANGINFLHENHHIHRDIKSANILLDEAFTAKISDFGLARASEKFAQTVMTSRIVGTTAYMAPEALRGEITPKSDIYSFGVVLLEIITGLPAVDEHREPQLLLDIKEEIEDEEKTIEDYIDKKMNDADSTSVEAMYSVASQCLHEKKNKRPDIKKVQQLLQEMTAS

[2] = target: T2, FLT3 kinase (Homo sapiens, UniProt P36888); assay: Kinase inhibition, fluorescence microfluidic mobility shift assay (FLT3); format: biochemical; conditions: substrate peptide FAM-P2 3 μM, ATP 97 μM; one hour at 28° C.; assayed in duplicate
T2 sequence (P36888 564-993): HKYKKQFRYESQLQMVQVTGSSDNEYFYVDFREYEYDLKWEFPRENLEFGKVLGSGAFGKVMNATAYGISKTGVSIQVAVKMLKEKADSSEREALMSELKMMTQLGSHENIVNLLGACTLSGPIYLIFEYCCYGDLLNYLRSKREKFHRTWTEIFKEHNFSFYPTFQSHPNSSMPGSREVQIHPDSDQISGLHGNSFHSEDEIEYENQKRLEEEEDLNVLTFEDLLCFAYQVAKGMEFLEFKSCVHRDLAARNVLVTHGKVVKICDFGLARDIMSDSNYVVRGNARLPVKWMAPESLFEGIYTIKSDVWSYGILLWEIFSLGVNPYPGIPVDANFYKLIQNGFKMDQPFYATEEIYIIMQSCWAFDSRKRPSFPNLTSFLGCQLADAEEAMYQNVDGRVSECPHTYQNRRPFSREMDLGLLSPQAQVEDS
Procedure: Based on the experimental method of fluorescence microfluidic mobility shift assay, the IC50 value of the compound for competitive binding of ATP to kinases IRAK4 and FLT3 was determined. The initial detection concentration of the compound was 10 μM, which was diluted to 0.38 nM with a 4-fold gradient and assayed in duplicate. In this case, commercially available staurosporine was the standard control for the assay.
Information on reagents and consumables is as follows: • IRAK4 kinase (Carna, Cat. No. 09-145, Lot. No. 14CBS-0020 H) • FLT3 kinase (Carna, Cat. No. 08-154, Lot. No. 07CBS-2350) • Substrate peptide FAM-P2 (GL Biochem, Cat. No. 112394, Lot. No. P131014-XP112394) • Substrate peptide FAM-P8 (GL Biochem, Cat. No. 112396, Lot. No. P170731-SY112396) • ATP (adenosine triphosphate, Sigma, Cat. No. A7699-1G, CAS No. 987-65-5) • DMSO (dimethyl sulfoxide, Sigma, Cat. No. D2650) • EDTA (ethylenediaminetetraacetic acid, Sigma, Cat. No. E5134, CAS No. 60-00-4) • Staurosporine (Selleckchem, Cat. No. 51421) • HEPES (4-(2-Hydroxyethyl)-1-piperazineethanesulfonic acid, Gibco, Cat. No. 15630-080) • Brij-35 solution (Polyoxyethylene lauryl ether, Sigma, Cat. No. B41840-100 mL) • DTT (dithiothreitol, Sigma, Cat. No. D0632-20G) • 0.2% Coating Reagent #3 (0.2% coating reagent, Perkin Elmer, Cat. No. 760050) • 96-well plate (Corning, Cat. No. 3365) • 384-well plate (Corning, Cat. No. 3573) Experimental operation method: • 1) FLT3 and IRAK4 kinases were dissolved in the kinase buffer (50 mM HEPES pH 7.5, 10 mM MgCl2, 2 mM DTT, and 0.01% Brij-35) at final concentrations of 0.9 nM, 30 nM, and 6 nM, respectively. • 2) The substrate peptide FAM-P2 and the substrate peptide FAM-P8, together with ATP, were dissolved in the above kinase buffer, respectively, where the final concentrations of the substrate peptide FAM-P2 and ATP for the determination of FLT3 were 3 μM and 97 μM, respectively; and the final concentrations of the substrate peptide FAM-P8 and ATP for the determination of IRAK4 were 3 μM and 10 μM, respectively. • 3) Compound dilution: The compound was first diluted to 50 μM, and then diluted downward with DMSO in a 4-fold gradient. In this case, the solution without compound and kinase served as the blank control, corresponding to the “minimum value” shown below; the solution without compound but containing kinase, adenosine triphosphate, DMSO, and the buffer served as the positive control, corresponding to the “maximum value” shown below. • 4) Kinase reaction and termination: 10 μL of the kinase buffer was added to a 384-well plate containing 5 μL of the compound to be tested, and the mixture was incubated for 10 minutes at room temperature; another 10 μL, of buffer containing the substrate peptide and adenosine triphosphate was added to the 384-well plate, and after incubation for one hour at 28° C., 25 μL, of termination solution (100 mM HEPES pH 7.5, 50 mM EDTA, 0.2% Coating Reagent #3, and 0.015% Brij-35) was added to each well for reaction termination. • 5) Data reading: CaliperEZ Reader II instrument was used to read the conversion rate data. Setting conditions: downstream voltage as −500 V, upstream voltage as −2250 V, base pressure as −0.5 PSI, and screening pressure as −1.2 PSI. • 6) Data calculation: the conversion rate data was copied from CaliperEZ Reader II, and the conversion rate was converted into inhibition rate data.

[3] = system: MV4-11 cells; assay: Cytotoxicity against MV4-11 cells (CellTiter-Glo); format: cell-based; conditions: Homo sapiens, incubated for 72 hours, CellTiter-Glo chemiluminescence
Procedure: Determination of the IC50 Value of the Compound's Cytotoxicity Against MV4-11 Cells
MV-4-11 cells were cultured with IMDM complete medium (IMDM+10% fetal bovine serum+1% Penicillin-Streptomycin, a mixture of penicillin-streptomycin). • 2. MV-4-11 cells in good condition were collected and washed twice with DPBS ([…] phosphate buffered saline solution). • 3. MV-4-11 cells were resuspended with IMDM complete medium, the cell density was adjusted to 1.11×10^6 cells/mL, and the MV-4-11 cells were added to 96-well plates at 90 μL per well. • 4. A compound solution with 10-fold concentration was prepared with IMDM complete medium, 10 μL of the compound solution with 10-fold concentration was added to the cells in the 96-well plate, mixed well, and then the 96-well plate was placed in a 5% CO2 incubator at 37° C. and incubated for 72 hours. • 5. After the incubation, the 96-well plate was taken out and equilibrated for 30 minutes at room temperature. Then 100 μL of CellTiter Glo reagent was added to each well and mixed on a horizontal shaker for 2 minutes. • 6. The 96-well plate was removed, equilibrated at room temperature for 10 minutes, and the chemiluminescence value was detected on a microplate reader.

For `CC(C)(O)CCn1cc2cc(NC(=O)c3coc(-c4ccnc(C(F)(F)F)c4)n3)c(C(C)(C)O)cc2n1` [II-93], the IC50 [1] was 2.7 nM, the IC50 [2] was 2.2 nM and the IC50 [3] was 21 nM.

For `Cc1cc(-c2nc(C(=O)Nc3cc4cn(CCC5CCNC5=O)nc4cc3OC3COC3)co2)ccn1` (stereo not drawn) [II-64], the IC50 [1] was 4.5 nM and the IC50 [3] was 1.3 nM.

With `Cc1cc(-c2nc(C(=O)Nc3cc4cn(CCC(C)(C)O)nc4cc3N3CCC(F)(F)C3)co2)ccn1` [II-98] the IC50 [1] was 5.2 nM, the IC50 [2] was 0.44 nM and the IC50 [3] was 0.3 nM.

With `[2H]C([2H])([2H])C(O)(CCn1cc2cc(NC(=O)c3coc(-c4ccnc(C(F)(F)F)c4)n3)c(C(C)(C)O)cc2n1)C([2H])([2H])[2H]` [II-117] the IC50 [1] was 5.54 nM, the IC50 [2] was 4 nM and the IC50 [3] was 23.2 nM.

`CC(C)c1cc(-c2nc(C(=O)Nc3cc4cn(CCC(C)(C)O)nc4cc3C(C)(C)O)co2)ccn1` [II-104] showed an IC50 [1] of 5.3 nM, an IC50 [2] of 2.31 nM and an IC50 [3] of 21 nM.

`Cc1cc(-c2nc(C(=O)Nc3cc4cn(C5CCS(=O)(=O)CC5)nc4cc3C(C)(C)O)co2)ccn1` [II-57] showed an IC50 [1] of 6.5 nM, an IC50 [2] of 0.3 nM and an IC50 [3] of 13 nM.

In the case of `COc1cc2nn(C3CCNCC3)cc2cc1NC(=O)c1coc(-c2ccnc(C(F)F)c2)n1` [II-94C], the IC50 [1] is reported as 8 nM, the IC50 [2] is reported as 0.44 nM and the IC50 [3] is reported as 10.6 nM.

`COc1cc2nn(CCS(C)(=N)=O)cc2cc1NC(=O)c1coc(-c2ccnc(C)c2)n1` (stereo not drawn) [II-12] gave an IC50 [1] of 10 nM, an IC50 [2] of 0.44 nM and an IC50 [3] of 17.9 nM.

With `COc1cc2nc(C3CCNCC3)cn2cc1NC(=O)c1coc(-c2ccnc(C)c2)n1` [II-15C] the IC50 [1] was 6.5 nM, the IC50 [2] was 1.3 nM and the IC50 [3] was 8.2 nM.

`Cc1cc(-c2nc(C(=O)Nc3cc4cn(CC5(F)CN(C(=O)OC(C)(C)C)C5)nc4cc3C(C)(C)O)co2)ccn1` [II-107] showed an IC50 [1] of 9.22 nM and an IC50 [2] of 0.73 nM.

`Cc1cc(-c2nc(C(=O)Nc3cc4cn(CCN5CC6CC5CO6)nc4cc3C(C)(C)O)co2)ccn1` (stereo not drawn) [II-110] was tested, and the IC50 [1] was 8.16 nM and the IC50 [2] was 0.36 nM.

`Cc1cc(-c2nc(C(=O)Nc3cc4oc(N5CCOCC5)nc4cc3N3CCC(O)C3)co2)ccn1` (stereo not drawn) [II-132] gave an IC50 [1] of 7.18 nM, an IC50 [2] of 0.35 nM and an IC50 [3] of 1.2 nM.

With `Cc1cc(-c2nc(C(=O)Nc3cc4cn(C5CC6CCC(C5)N6)nc4cc3C(C)(C)O)co2)ccn1` (stereo not drawn) [II-100] the IC50 [1] was 22 nM, the IC50 [2] was 0.62 nM and the IC50 [3] was 9 nM.

Work on `Cc1cc(-c2nc(C(=O)Nc3cc4cn(C5CCC6(CNC6)C5)nc4cc3C(C)(C)O)co2)ccn1` (stereo not drawn) [II-99] yielded an IC50 [1] of 5.5 nM, an IC50 [2] of 0.26 nM and an IC50 [3] of 10.9 nM.

With `Cc1cc(-c2nc(C(=O)Nc3cc4sc(N5CCOCC5)nc4nc3C(C)(C)O)co2)ccn1` [II-124] the IC50 [1] was 4.8 nM, the IC50 [2] was 0.31 nM and the IC50 [3] was 5 nM.

`Cc1cc(-c2nc(C(=O)Nc3cc4oc(N5CCN(CC(F)(F)F)CC5)nc4nc3N3CCC(O)C3)co2)ccn1` (stereo not drawn) [II-128] showed an IC50 [1] of 44 nM and an IC50 [2] of 13 nM.

`Cc1cc(-c2nc(C(=O)Nc3cc4cn(CCC(C)(C)O)nc4cc3C(C)(O)C(F)(F)F)co2)ccn1` (stereo not drawn) [II-111] was tested, and the IC50 [1] was 4.94 nM, the IC50 [2] was 0.42 nM and the IC50 [3] was 0.8 nM.

In the case of `COc1cc2nn(C3CCNCC3)cc2cc1NC(=O)c1coc(N2CCS(=O)(=O)CC2)n1` [II-7C], the IC50 [1] is reported as 94 nM and the IC50 [2] is reported as 100 nM.

`COc1cc2nn(C3CCNCC3)cc2cc1NC(=O)c1coc(-c2ccccc2)n1` [II-9C] gave an IC50 [1] of 9.4 nM.

`Cc1cc(-c2nc(C(=O)Nc3cc4cn(C5CCN(CC(F)(F)F)CC5)nc4cc3C(C)(C)O)co2)ccn1` [II-59] showed an IC50 [1] of 4.9 nM, an IC50 [2] of 0.63 nM and an IC50 [3] of 12.5 nM.

With `COc1cc2nn(C3CCNCC3)cc2cc1NC(=O)c1coc(N2CCN(C(C)=O)CC2)n1` [II-6] the IC50 [1] was 178 nM.

Work on `[2H]C([2H])([2H])C(O)(c1cc2nn(CCC(C)(C)O)cc2cc1NC(=O)c1coc(-c2ccnc(C(F)(F)F)c2)n1)C([2H])([2H])[2H]` [II-109] yielded an IC50 [1] of 6.48 nM, an IC50 [2] of 4.2 nM and an IC50 [3] of 15.2 nM.
